We go through 1 compound from patent US20210186930A1, “Methods of Treating Renal Disease Associated With Chronic Kidney Disease Such as Alport Syndrome” (UNIVERSITY OF MIAMI, priority 2018, published 2021).

Data set [1] concerns Col4a3−/− mice. Kind of data set: Mesangial expansion (PAS) and renal fibrosis (Picrosirius Red) in Col4a3-/- mice (Example 3, FIG. 6). It counts as in vivo, mouse. Particulars: treated vs untreated Col4a3−/− mice; ezetimibe 5 mg/kg, ramipril 10 mg/kg, 4 weeks. The method, then:
Assessment of mesangial expansion: Periodic acid-Schiff (PAS) staining of 4 μm-thick tissue sections was performed using a standard protocol. Twenty glomeruli per section were analyzed for mesangial expansion by semi quantitative analysis (scale 0-4) performed by two blinded independent investigators.
Picrosirius red staining: Paraffin-embedded sections (4 μm thick) were deparaffinized with xylene and a graded alcohol series. Sections were rinsed for 5 min in distilled water, stained for 1 hour with picrosirius red in saturated aqueous picric acid, examined under a light microscope and photomicrographs were taken. Histological images were visualized using a light microscope (Olympus BX 41, Tokyo, Japan) at 40× magnification and analyzed using Image J software.
The following experiment was performed to investigate which treatment, ezetimibe (EZ), ramipril (Ramp) or the combination of both drugs (EZ+Ramp), would best preserve renal function in Col4a3 knockout mice, all drugs were administered to 4-week-old Col4a3−/− mice for 4 weeks as follows: ezetimibe (Ez) was orally administered at a concentration of 5 mg/kg BW, ramipril was added to the drinking water at a concentration that would lead to a daily ramipril uptake of 10 mg/kg BW. All mice were sacrificed at 8 weeks of age. The following four groups of mice were analyzed: Col4a3^+/+, Col4a3^−/−+Ez, Col4a3^−/−+Ramp and Col4a3^−/−+Ez+Ramp.
PAS staining was performed to detect and quantify mesangial expansion, Picrossirius Red staining to detect and quantify renal fibrosis in treated compared to untreated Col4a3^−/− mice. […] Representative images for PAS staining are shown in FIG. 6A and of Picrosirius Red staining to detect fibrosis in […]. Bar graph quantifications for both are shown in FIGS. 6C and 6D, respectively.

For data set [2] the following is noted: cited from earlier work.
For data set [3] the following is noted: ambient temperature; cited from earlier work.
The test system of data set [4] is Col4a3−/− mice. Description: Renal cortex lipid content in Col4a3-/- mice (Example 4, FIG. 7). It counts as in vivo, mouse. The settings on record: for triglyceride (TG) content in kidney cortexes: treated vs untreated Col4a3−/− mice, ezetimibe 5 mg/kg, ramipril 10 mg/kg, 4 weeks. As to the method: Determination of cholesterol content in kidney cortex: Tissue from kidney cortexes was homogenized in hypotonic buffer (10 mM HEPES pH7.0, 15 mM KCl, 1 mM MgCl2, 10 mM phosphatase inhibitors). Lipids from 100 μl of the homogenate were extracted with 1 ml of hexane:isopropanol (3:2, v/v), dried and reconstituted in 100 μl of isopropanol-NP40 (9:1, v/v). Tissue fractions not soluble in the organic solvent, were further dried, reconstituted in 8 M urea, and assayed for protein concentration using Pierce BCA protein assay kit (ThermoFisher Scientific, MA, USA). Total cholesterol from lipid extracts was determined by the enzymatic method as previously described (Robinet, P., Wang, Z., Hazen, S. L. & Smith, J. D. A simple and sensitive enzymatic method for cholesterol quantification in macrophages and foam cells. Journal of lipid research 51, 3364-3369, 2010). Briefly, endogenous peroxides present were eliminated by incubating samples and standards with catalase (Sigma-Aldrich, MO, USA), 45 U/ml final concentration, for 15 min at 37° C. […] The plates were incubated at 37° C. for 30 min and fluorescence was read at 530 nm (Ex) and 580 nm (Em) in a plate reader (SpectraMax M5, Molecular Devices, CA, USA). Cholesteryl esters (CE) quantification was based on the method described from Toshimi M, et al. Briefly, 25 μl of samples was mixed with 150 μl of free cholesterol decomposition reagent (45 U/ml catalase, 1 U/ml cholesterol oxidase) and incubated 2-4 h at 37° C., and then the final volume was brought up to 250 μl prior to determining free and total cholesterol remaining. Total cholesterol remaining was determined by mixing 50 μl of end product reaction with 50 μl of reagent A, as described above. Free cholesterol remaining was determined similarly, but without including cholesterol esterase in the reagent. CE was calculated by the formula CE=(TC−FC)×DF, where TC is the total cholesterol remaining, FC the free cholesterol remaining and DF the dilution factor, in this case, 10. Lipid content: Oil Red 0 staining was performed on frozen tissue sections and triglyceride content was determined on snap frozen kidney tissue as described above. The following experiment was performed to investigate which treatment, ezetimibe (EZ), ramipril (Ramp) or the combination of both drugs (EZ+Ramp), would best preserve renal function in Col4a3 knockout mice, all drugs were administered to 4-week-old Col4a3−/− mice for 4 weeks as follows: ezetimibe (Ez) was orally administered at a concentration of 5 mg/kg BW, ramipril was added to the drinking water at a concentration that would lead to a daily ramipril uptake of 10 mg/kg BW. All mice were sacrificed at 8 weeks of age. The following four groups of mice were analyzed: Col4a3^+/+, Col4a3^−/−+Ez, Col4a3^−/−+Ramp and Col4a3^−/−+Ez+Ramp.

The test system of the next data set is Col4a3 knockout mice. Kind of data set: Renal function and body weight in Col4a3 knockout mice treated with ezetimibe (FIG. 3). It counts as in vivo, mouse. The method, then:
Mouse models: Mice in which exon 5 of a3 chain of collagen type IV is deleted (Col4a3 KO) were obtained from the Jackson Laboratory (#002908, 129-Col4a3tm1Dec/J). Col4a3 heterozygous littermates were bred to generate Col4a3 KO mice. Four groups of mice with n=3-10 per group were studied. The four groups consisted of: 1) wildtype controls+vehicle, 2) wildtype controls+ezetimibe, 3) Col4a3 KO+vehicle, 4) Col4a3 KO+ezetimibe. ezetimibe was administered by oral gavage daily starting at 4 weeks of age at a concentration of 5 mg/kg body weight. […] Mice were sacrificed at 8 weeks of age when progression to end-stage renal failure had occurred.
Albumin/creatinine ratio: All albuminuria values are expressed as μg albumin/mg creatinine. Albumin/creatinine determined by ELISA (Bethyl Laboratories) for albumin detection and a biochemical assay based on the Jaffe method for creatinine detection (Stanbio) as previously described.
Serology: Immediately prior to sacrifice, a blood sample was collected for the determination of BUN and lipid panel analysis in the comparative laboratory core facility of the University of Miami. Serum creatinine was determined by tandem mass spectrometry (UAB-UCSD O'Brien Core Center, University of Alabama).

Setting [5] is: ezetimibe 5 mg/kg oral gavage daily, sacrifice at 8 weeks.

Each structure is given as a SMILES string. Entries after “also recorded” stand apart in the source; their conditions may differ.

In the case of `O=C1[C@H](CC[C@H](O)c2ccc(F)cc2)[C@@H](c2ccc(O)cc2)N1c1ccc(F)cc1` [ezetimibe], in the data set on Col4a3−/− mice [1], the “mesangial expansion (PAS staining, score)” value is “significant reduction; also recorded: significantly reduced mesangial expansion” and the “renal fibrosis (Picrosirius Red staining)” value is “significant reduction; also recorded: significantly reduced”. For the same compound, in data set [2], the “solubility in ethanol, methanol, and acetone” value was “freely to very soluble”; the solubility in water result is on record as “practically insoluble”. In addition, in data set [3], the stability result is on record as “stable”. In addition, in the data set on Col4a3−/− mice [4] (ezetimibe only treated Col4a3−/− mice), the “total cholesterol content (kidney cortexes)” value is “no effect on the total cholesterol content”. In the data set on Col4a3−/− mice [4], the “triglyceride (TG) content in kidney cortexes” value is reported as “significantly decreased”. Moreover, the “triglyceride (TG) content in kidney cortexes” value in the data set on Col4a3−/− mice [4] (listed as ezetemibe) is given as “significantly decreased renal triglyceride content”. For the same compound, the body weight result with Col4a3 knockout mice (ezetimibe 5 mg/kg oral gavage daily) is reported as “prevents body weight loss”. In the data set with Col4a3 knockout mice (ezetimibe 5 mg/kg oral gavage daily from 4 weeks of age, vs untreated Col4a3 knockout mice), the albumin/creatinine ratio result was “significant reduction in the albumin/creatinine ratio”. Moreover, in the data set on Col4a3 knockout mice (setting [5]), the “serum BUN levels” value was “prevents increases in serum BUN levels” and the serum creatinine levels entry was “significantly reduces serum creatinine levels”.
